Experimental data reported in the supplement of paper PMC4862054.

Assays:
[1] = tested on: BT-474; assay: normalised viability (% of control), CellTiter-Blue; higher = more viable cells (about 100 = DMSO control); conditions: 100 nM; incubation time: 72 h
Method: (§1)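 DSRT, CellTiter-Blue viability, 72 h incubation. Signal is normalised to DMSO and benzethonium chloride controls. Value is the normalised response at dose 3.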

[2] = tested on: DU-4475; assay: as above; conditions: 10 nM; incubation time: 72 h
Method: as §1

[3] = tested on: HCC1599; assay: as above; conditions: 100 nM; incubation time: 72 h
Method: as §1

[4] = tested on: MDA-MB-453; assay: as above; conditions: 10 nM; incubation time: 72 h
Method: as §1

[5] = tested on: MFM-223; assay: as above; conditions: 100 nM; incubation time: 72 h
Method: as §1

[6] = tested on: SK-BR-3; assay: as above; conditions: 100 nM; incubation time: 72 h
Method: as §1

[7] = tested on: BT-474; assay: normalised viability (% of control), CellTiter-Blue; higher = more viable cells (about 100 = DMSO control); conditions: incubation time: 72 h
In short: (§2)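 After 72 h on compound-loaded 384-well plates, breast cancer cell lines received 2.5 µl CellTiter-Blue reagent for 2 h at 37 °C. Fluorescence at 560/590 nm was scaled per plate so that vehicle was 100 and a positive kill control was 0. The value stands for normalised viability at a single listed concentration of the series.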

[8] = tested on: BT-549; assay: as above; conditions: incubation time: 72 h
In short: as §2

[9] = tested on: CAL-120; assay: as above; conditions: incubation time: 72 h
In short: as §2

[10] = tested on: CAL-148; assay: as above; conditions: incubation time: 72 h
In short: as §2

[11] = tested on: CAL-51; assay: as above; conditions: incubation time: 72 h
In short: as §2

[12] = tested on: CAL-85-1; assay: as above; conditions: incubation time: 72 h
In short: as §2

[13] = tested on: DU-4475; assay: as above; conditions: incubation time: 72 h
In short: as §2

[14] = tested on: HCC1143; assay: as above; conditions: incubation time: 72 h
In short: as §2

[15] = tested on: HCC1599; assay: as above; conditions: incubation time: 72 h
In short: as §2

[16] = tested on: HCC1937; assay: as above; conditions: incubation time: 72 h
In short: as §2

[17] = tested on: HDQ-P1; assay: as above; conditions: incubation time: 72 h
In short: as §2

[18] = tested on: Hs578T; assay: as above; conditions: incubation time: 72 h
In short: as §2

[19] = tested on: MDA-MB-231; assay: as above; conditions: incubation time: 72 h
In short: as §2

[20] = tested on: MDA-MB-436; assay: as above; conditions: incubation time: 72 h
In short: as §2

[21] = tested on: MDA-MB-453; assay: as above; conditions: incubation time: 72 h
In short: as §2

[22] = tested on: MDA-MB-468; assay: as above; conditions: incubation time: 72 h
In short: as §2

[23] = tested on: MFM-223; assay: as above; conditions: incubation time: 72 h
In short: as §2

[24] = tested on: SK-BR-3; assay: as above; conditions: incubation time: 72 h
In short: as §2

[25] = tested on: Hs578T; assay: drug sensitivity score (DSS), CellTox Green (DSS (AUC-based score)); higher = stronger drug effect (viability inhibition or cytotoxicity); extreme values may be limits of the assay; conditions: incubation time: 72 h
In short: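 After 72 h of incubation in 384-well plates with compound at 5 concentrations (10-fold steps, 10,000-fold range set per compound), breast cancer cell lines seeded in 20 µl suspension were read first for CellTox Green fluorescence at 485/520 nm. CellTiter-Glo luminescence was measured next, after 10 min at room temperature. Normalisation on each plate used 0.1 % DMSO and a positive kill control, and the drug sensitivity score was computed from the area under the fitted dose-response curve.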

CS(=O)(=O)c1ccc(C(=O)Nc2ccc(Cl)c(-c3ccccn3)c2)c(Cl)c1 [Vismodegib]
Conditions	drug sensitivity score	normalised viability [%]
[1]	–	101
[2]	–	108
[3]	–	86.2
[4]	–	108
[5]	–	104
[6]	–	66.7
[25]	1.09	–

normalised viability [%]
Conditions	3 nM	10 nM	30 nM	100 nM	1000 nM	10000 nM
[7]	–	102	–	–	118	77.5
[8]	–	102	–	–	112	79.2
[9]	–	89.7	–	–	90.8	85.6
[10]	79.8	–	93.5	92.2	–	–
[11]	114	–	104	106	–	–
[12]	97.9	–	93.7	109	–	–
[13]	107	–	110	110	–	–
[14]	–	93.1	–	–	93.6	92.9
[15]	–	112	–	–	97.7	84.1
[16]	–	57.2	–	–	91.4	83.9
[17]	100	–	96.5	88.8	–	–
[18]	–	106	–	–	108	93.3
[19]	–	115	–	–	97.7	92
[20]	–	90.9	–	–	23.6	76
[21]	106	–	113	104	–	–
[22]	–	104	–	–	103	88.7
[23]	–	92.4	–	–	108	99.6
[24]	–	107	–	–	105	95.2

COc1cccc2cc(-c3nc([C@H]4CC[C@H](C(=O)O)CC4)n4ncnc(N)c34)[nH]c12 [OSI-027]
Conditions	drug sensitivity score	normalised viability [%]
[1]	–	95.1
[2]	–	105
[3]	–	88.9
[4]	–	80.9
[5]	–	73.7
[6]	–	48.6
[25]	0	–

normalised viability [%]
Conditions	3 nM	10 nM	30 nM	100 nM	1000 nM	10000 nM
[7]	–	106	–	–	54.2	25.9
[8]	–	98.9	–	–	76	16.1
[9]	–	101	–	–	66.4	12.5
[10]	86.7	–	87.5	82.2	–	–
[11]	97.3	–	93.8	84.6	–	–
[12]	95.4	–	83.2	100	–	–
[13]	96.6	–	92.5	82.5	–	–
[14]	–	101	–	–	72.9	35
[15]	–	106	–	–	72.4	47
[16]	–	71.7	–	–	59.8	33.9
[17]	78.3	–	80.4	76.8	–	–
[18]	–	99.4	–	–	59.1	23.6
[19]	–	87.4	–	–	69.4	25.9
[20]	–	76.6	–	–	56.4	31.6
[21]	79	–	88.2	71.6	–	–
[22]	–	87.8	–	–	66.4	22
[23]	–	101	–	–	34.9	16
[24]	–	93.7	–	–	19	13.1
